Test results taken from PMC5472784, “Pyrazinamide and derivatives block ethylene biosynthesis by inhibiting ACC oxidase” (Nature Communications, 2017).
Like-named read-outs stand apart in the source and are kept apart here. Values belong to the molecule of their own block, whether it stands above or below them.

Experiments:
AtACO2 [1] = target: T1, AtACO2 (Arabidopsis thaliana, UniProt Q41931); test: ACO enzymatic activity assay and kinetic analysis (ethylene by GC-FID); assay type: biochemical
[2] = tested on: ethylene production of Arabidopsis seedlings; test: Measurement of ethylene production of seedlings (GC-FID); assay type: in vivo, Arabidopsis thaliana; settings: for ethylene production in Arabidopsis seedlings: Supplementary Fig. 10
Procedure: Ethylene production was determined as follows: 30 3-day-old etiolated or 5-day-old green seedlings of Col-0, eto1-2 or other mutants were selected randomly and sealed in a 30 ml vial containing 3 ml liquid MS medium supplemented with indicated treatments. The vial was sealed with a rubber stopper for 24 h at 22 °C prior to ethylene sampling. A 250 μl sample of the headspace gas was withdrawn using a gas-tight syringe from each chamber through the septum stopper, and injected into a gas chromatograph (Agilent 6890NGC, Agilent Technologies, USA) that was equipped with a HP-PLOTQ column (40 m × 530 μm × 40 μm) and a flame ionization detector (FID)[44]. Separations were carried out at 60 °C using N2 as the carrier gas. The area of the ethylene peak was integrated with Agilent Chemstation and results were expressed as the average relative ethylene production (%) of each treatment.

AtACO2 [3] = target: T1, AtACO2; test: Isothermal titration calorimetry; assay type: binding; settings: ITC, 25 °C, read-out: dissociation constant (KD), AtACO2
Procedure: (§1) ITC experiments were performed using a MicroCal iTC200 (GE Healthcare) at 25 °C. Small molecules and proteins were in the same buffer containing 25 mM Bis–Tris (pH 6.0), 150 mM NaCl, 0.1 mM ZnCl2 (or 0.2 mM FeSO4 for POA and AtACO2). The concentration of small molecules in the syringe was 1 mM, and the concentration of proteins in the cell was 90 μM. Data were analysed with a one-site model using Origin 7.0 (OriginLab).

[4] = tested on: Arabidopsis PSB-D suspension cultured cells; test: Ethylene production of suspension cultured cells; assay type: cell-based, Arabidopsis thaliana
[5] = tested on: dioxygenase for auxin oxidation (DAO); test: Isothermal titration calorimetry; assay type: binding, Arabidopsis thaliana; settings: ITC
Procedure: as §1

AtACO1 = target: T2, AtACO1 (Arabidopsis thaliana, UniProt Q9ZUN4); test: ACO enzymatic activity assay, kinetic analysis; assay type: biochemical; settings: varying ACC, 200 μM POA, unit inferred
T2 sequence (Q9ZUN4 1-310): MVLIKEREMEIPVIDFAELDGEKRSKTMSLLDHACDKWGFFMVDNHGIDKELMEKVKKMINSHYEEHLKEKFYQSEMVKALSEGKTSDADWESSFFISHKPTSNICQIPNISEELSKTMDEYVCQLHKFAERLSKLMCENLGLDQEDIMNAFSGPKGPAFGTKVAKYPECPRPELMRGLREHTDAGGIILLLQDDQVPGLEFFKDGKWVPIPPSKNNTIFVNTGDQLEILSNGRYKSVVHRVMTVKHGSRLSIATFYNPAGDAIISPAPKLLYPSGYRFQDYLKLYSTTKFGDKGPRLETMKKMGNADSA
Procedure: (§2) The activity was performed following previously published protocol. The reaction mixture contains 50 mM MOPS, pH 7.4, 10% glycerol (v/v), 5 mM ascorbic acid, 20 mM NaHCO3, 0.02 mM FeSO4, 1 mM DTT, and different amounts of ACC and PZA/POA as indicated. The reaction was initiated by the addition of 5 μg ACO protein and immediately sealed with a rubber stopper. After incubation at 30 °C for 30 min with shaking, 100 μl of gas product was withdrawn by syringe from the headspace of the vial and injected into the GC-FID. The area of the ethylene peak was integrated with Agilent Chemstation and results were analysed using the program GraphPad Prism (version 5.01; GraphPad Software Inc., San Diego, CA, USA). The initial velocities were plotted against starting ACC concentrations in a double-reciprocal manner and the kinetic parameters were deduced.

AtACO3 = AtACO3 (Arabidopsis thaliana, UniProt O65378); test: ACO enzymatic activity assay, kinetic analysis; assay type: biochemical; settings: varying ACC, 200 μM POA, unit inferred
Procedure: as §2

AtACO4 = AtACO4 (Arabidopsis thaliana, UniProt Q06588); test: ACO enzymatic activity assay, kinetic analysis; assay type: biochemical; settings: varying ACC, 200 μM POA, unit inferred
Procedure: as §2

AtACO5 = target: T3, AtACO5 (Arabidopsis thaliana, UniProt Q0WPW4); test: ACO enzymatic activity assay, kinetic analysis; assay type: biochemical; settings: varying ACC, 200 μM POA, unit inferred
T3 sequence (Q0WPW4 1-307): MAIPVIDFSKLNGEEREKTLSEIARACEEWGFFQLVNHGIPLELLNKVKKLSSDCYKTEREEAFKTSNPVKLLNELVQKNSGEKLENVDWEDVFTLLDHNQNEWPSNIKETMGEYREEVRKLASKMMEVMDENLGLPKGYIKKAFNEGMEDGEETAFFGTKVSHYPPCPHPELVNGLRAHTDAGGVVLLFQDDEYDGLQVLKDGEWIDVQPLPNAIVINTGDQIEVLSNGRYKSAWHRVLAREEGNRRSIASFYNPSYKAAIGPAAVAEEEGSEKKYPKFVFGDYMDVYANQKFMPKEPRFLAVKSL
Procedure: as §2

[6] = target: T4, anthocyanidin synthase (ANS) (Arabidopsis thaliana, UniProt Q96323); test: Isothermal titration calorimetry; assay type: binding; settings: ITC
T4 construct: GST; made in house
Procedure: as §1

[7] = target: T5, gibberellin C2 oxidase 2 (GA2OX2) (Arabidopsis thaliana, UniProt Q9XFR9); test: Isothermal titration calorimetry; assay type: binding; settings: ITC
T5 construct: GST; made in house
T5 sequence (Q9XFR9 1-341): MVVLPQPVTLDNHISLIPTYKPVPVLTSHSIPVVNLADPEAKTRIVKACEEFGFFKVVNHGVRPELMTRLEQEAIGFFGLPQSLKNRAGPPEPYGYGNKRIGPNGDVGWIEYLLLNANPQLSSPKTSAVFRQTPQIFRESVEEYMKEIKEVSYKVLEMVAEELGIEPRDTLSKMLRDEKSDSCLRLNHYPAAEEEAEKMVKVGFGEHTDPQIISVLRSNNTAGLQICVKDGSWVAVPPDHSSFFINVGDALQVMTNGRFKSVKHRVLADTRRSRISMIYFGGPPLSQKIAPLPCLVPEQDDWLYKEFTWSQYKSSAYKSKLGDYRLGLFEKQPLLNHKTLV
Procedure: as §1

[8] = tested on: Arabidopsis etiolated seedlings (Col-0, eto1-2, ctr1-1, ein2-5); test: Ethylene response phenotype of 3-day-old etiolated seedlings (hypocotyl and root length, root hairs, root cells); assay type: in vivo, Arabidopsis thaliana; settings: 3-day-old etiolated eto1-2 seedlings, MS medium with compound (50 μM shown)
[9] = target: the other four ACO proteins in Arabidopsis (AtACO1, AtACO3, AtACO4 and AtACO5); test: ACO kinetic analysis, span over the other four ACO proteins; assay type: biochemical, Arabidopsis thaliana; settings: span over AtACO1, 3, 4, 5
Procedure: as §2

AtACO2 [10] = target: T1, AtACO2; test: Fragmentation (stability) of purified AtACO2; settings: 200 μM POA, 30 °C
Procedure: Purified AtACO2 was incubated with or without 200 μM POA at 30 °C in a buffer containing 50 mM MOPS, pH 7.2, 10% glycerol (v/v), 5 mM ascorbic acid, 20 mM NaHCO3, 0.02 mM FeSO4, 1 mM ACC and 1 mM DTT. At the indicated time point, the reaction was terminated by the addition of SDS-PAGE loading buffer followed by boiling. Fragmentation of AtACO2 was visualized on a SDS-PAGE gel.

T1 sequence (Q41931 1-303): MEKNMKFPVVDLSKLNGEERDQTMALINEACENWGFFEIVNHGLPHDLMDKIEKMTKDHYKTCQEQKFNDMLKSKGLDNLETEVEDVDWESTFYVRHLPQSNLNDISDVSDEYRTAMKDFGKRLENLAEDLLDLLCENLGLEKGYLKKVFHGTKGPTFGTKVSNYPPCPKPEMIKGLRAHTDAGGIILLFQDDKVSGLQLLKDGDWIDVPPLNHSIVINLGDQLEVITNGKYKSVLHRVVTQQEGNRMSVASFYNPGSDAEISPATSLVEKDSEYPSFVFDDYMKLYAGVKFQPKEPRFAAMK
Chain of AtACO3 (O65378 whole entry): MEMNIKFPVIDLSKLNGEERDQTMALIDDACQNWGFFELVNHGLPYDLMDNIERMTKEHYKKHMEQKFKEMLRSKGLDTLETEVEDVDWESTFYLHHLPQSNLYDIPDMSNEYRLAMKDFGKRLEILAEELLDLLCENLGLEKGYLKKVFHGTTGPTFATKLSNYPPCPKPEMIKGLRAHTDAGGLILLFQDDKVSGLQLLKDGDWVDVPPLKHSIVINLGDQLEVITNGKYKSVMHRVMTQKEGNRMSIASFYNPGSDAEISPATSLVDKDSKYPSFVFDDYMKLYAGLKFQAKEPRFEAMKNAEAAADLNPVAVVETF
T4 sequence (Q96323 whole entry): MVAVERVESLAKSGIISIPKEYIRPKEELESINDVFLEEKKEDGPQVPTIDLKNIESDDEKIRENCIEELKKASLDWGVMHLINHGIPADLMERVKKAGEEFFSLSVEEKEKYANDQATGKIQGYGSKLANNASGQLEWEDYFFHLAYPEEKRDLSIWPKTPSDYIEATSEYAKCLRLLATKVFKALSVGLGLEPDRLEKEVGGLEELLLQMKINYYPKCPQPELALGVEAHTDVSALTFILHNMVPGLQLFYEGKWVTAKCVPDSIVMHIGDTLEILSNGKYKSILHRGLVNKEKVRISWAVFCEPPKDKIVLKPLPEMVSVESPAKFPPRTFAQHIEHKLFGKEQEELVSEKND
Chain of AtACO4 (Q06588 whole entry): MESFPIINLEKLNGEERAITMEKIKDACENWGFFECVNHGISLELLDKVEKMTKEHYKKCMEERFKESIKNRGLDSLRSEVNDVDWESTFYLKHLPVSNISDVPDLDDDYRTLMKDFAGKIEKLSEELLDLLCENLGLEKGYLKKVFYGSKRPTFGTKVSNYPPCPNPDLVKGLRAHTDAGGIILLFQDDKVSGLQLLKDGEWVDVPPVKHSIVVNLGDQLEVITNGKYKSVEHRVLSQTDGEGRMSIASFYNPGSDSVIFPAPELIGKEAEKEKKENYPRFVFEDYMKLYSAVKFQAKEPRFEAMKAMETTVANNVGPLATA

- inhibition effect on AtACO2 compared with POA (AtACO2 [1]; 200 μM): stronger than that of POA
- relative AtACO2 activity treated with POA derivatives (AtACO2 [1]; 200 μM): directly inhibited
- Kd (AtACO2 [3]; in the presence of Zn2+): 2.8 µM
SMILES: O=C(O)c1ccccn1 [2-PA, 2-picolinic acid]
- ethylene production in Arabidopsis seedlings [2]: remarkably inhibited
- ethylene production in suspension cultured cells [4]: remarkably inhibited

SMILES: NC(=O)c1ccccn1 [2-picolinamide]
- ethylene production in Arabidopsis seedlings [2]: remarkably inhibited
- ethylene production in suspension cultured cells [4]: remarkably inhibited

- inhibition effect on AtACO2 compared with POA (AtACO2 [1]; 200 μM): much weaker inhibition effect than POA
SMILES: CC(C)(N)C(=O)O [AIB, α-aminoisobutyric acid, reference compound]

SMILES: O=C(O)c1cnccn1 [POA, pyrazinecarboxylic acid]
- interaction with DAO [5]: no interaction
- Ki (AtACO1): 317 ± 90.4 µM
- Ki (AtACO3): 187 ± 54.5 µM
- Ki (AtACO4): 195 ± 73.3 µM
- Ki (AtACO5): 722 ± 536 µM
- Ki (AtACO2 [1]; Lineweaver–Burk plots, varying ACC, 100, 200 or 300 μM POA, error represents s.d., read-out: Ki, AtACO2 inhibition): 89.8 ± 18.3 µM
- mode of inhibition of ACO (AtACO2 [1]; double-reciprocal plots): competitive inhibitor
- IC50 (AtACO2 [1]; recombinant AtACO2, ethylene by GC-FID, read-out: IC50, inhibition of AtACO2 activity): 72.1 ± 1.11 µM
- ACC-induced ethylene production of Col-0 seedlings ([2]; 100 μM ACC, 500 μM compound, 24 h): inhibited
- Kd (AtACO2 [3]; in the presence of Fe2+): 14.8 µM
- Kd (AtACO2 [3]; in the presence of Zn2+): 10.2 µM
- interaction with ANS [6]: no interaction
- interaction with GA2OX2 [7]: no interaction
- short-root and short-hypocotyl phenotype of eto1-2 [8]: specifically suppressed
- Ki [9]: 187 to 722 µM
- stability of purified AtACO2 protein (AtACO2 [10]): did not obviously change
